One test deals with ACHN. Kind of test: Growth inhibition of human ACHN cells after 48 hrs by sulforhodamine B-based colorimetric assay. Type of test: functional.
A further test deals with NCI-H23. Kind of test: Growth inhibition of human NCI-H23 cells after 48 hrs by sulforhodamine B-based colorimetric assay. As to conditions: NCI-H23, 48 h. The class given is functional.
The test system of a further test is U-251. Kind of test: Growth inhibition of human U251 cells after 48 hrs by sulforhodamine B-based colorimetric assay. Type of test: functional. As to conditions: U-251, 48 h.
The subject of the next test is OVCAR-5. Kind of test: Growth inhibition of human OVCAR5 cells after 48 hrs by sulforhodamine B-based colorimetric assay. Type of test: functional. As to conditions: OVCAR-5, 48 h.
A further test has as its system DMS-273. Description: Growth inhibition of human DMS273 cells after 48 hrs by sulforhodamine B-based colorimetric assay. Type of test: functional. As to conditions: DMS-273, 48 h.
Test [1] can be described thus: Growth inhibition of human BSY1 cells after 48 hrs by sulforhodamine B-based colorimetric assay. The class given is functional. As to conditions: BSY-1, 48 h.
A further test concerns MDA-MB-231. Kind of test: Growth inhibition of human MDA-MB-231 cells after 48 hrs by sulforhodamine B-based colorimetric assay. Type of test: functional. The conditions noted are these: MDA-MB-231, 48 h.
Another test has as its system SK-OV-3. Description: Growth inhibition of human SKOV3 cells after 48 hrs by sulforhodamine B-based colorimetric assay. Type of test: functional. The conditions noted are these: SK-OV-3, 48 h.
The test system of a further test is SF-539. Kind of test: Growth inhibition of human SF539 cells after 48 hrs by sulforhodamine B-based colorimetric assay. The class given is functional. As to conditions: SF-539, 48 h.
Test [2] is described as follows: Selectivity index, ratio of IC50 for human placenta topoisomerase 2alpha to IC50 for mouse HDAC6 expressed in HEK293T cells co-expressing mouse HDA2. The class given is cell-based.
The test system of another test is RXF 631. Description: Growth inhibition of human RXF631L cells after 48 hrs by sulforhodamine B-based colorimetric assay. The class given is functional. As to conditions: RXF 631, 48 h.
The target in test [3] is T1, Protein deacetylase HDAC6 (Mus musculus, UniProt Q9Z2V5).
T1 sequence (Q9Z2V5 whole entry): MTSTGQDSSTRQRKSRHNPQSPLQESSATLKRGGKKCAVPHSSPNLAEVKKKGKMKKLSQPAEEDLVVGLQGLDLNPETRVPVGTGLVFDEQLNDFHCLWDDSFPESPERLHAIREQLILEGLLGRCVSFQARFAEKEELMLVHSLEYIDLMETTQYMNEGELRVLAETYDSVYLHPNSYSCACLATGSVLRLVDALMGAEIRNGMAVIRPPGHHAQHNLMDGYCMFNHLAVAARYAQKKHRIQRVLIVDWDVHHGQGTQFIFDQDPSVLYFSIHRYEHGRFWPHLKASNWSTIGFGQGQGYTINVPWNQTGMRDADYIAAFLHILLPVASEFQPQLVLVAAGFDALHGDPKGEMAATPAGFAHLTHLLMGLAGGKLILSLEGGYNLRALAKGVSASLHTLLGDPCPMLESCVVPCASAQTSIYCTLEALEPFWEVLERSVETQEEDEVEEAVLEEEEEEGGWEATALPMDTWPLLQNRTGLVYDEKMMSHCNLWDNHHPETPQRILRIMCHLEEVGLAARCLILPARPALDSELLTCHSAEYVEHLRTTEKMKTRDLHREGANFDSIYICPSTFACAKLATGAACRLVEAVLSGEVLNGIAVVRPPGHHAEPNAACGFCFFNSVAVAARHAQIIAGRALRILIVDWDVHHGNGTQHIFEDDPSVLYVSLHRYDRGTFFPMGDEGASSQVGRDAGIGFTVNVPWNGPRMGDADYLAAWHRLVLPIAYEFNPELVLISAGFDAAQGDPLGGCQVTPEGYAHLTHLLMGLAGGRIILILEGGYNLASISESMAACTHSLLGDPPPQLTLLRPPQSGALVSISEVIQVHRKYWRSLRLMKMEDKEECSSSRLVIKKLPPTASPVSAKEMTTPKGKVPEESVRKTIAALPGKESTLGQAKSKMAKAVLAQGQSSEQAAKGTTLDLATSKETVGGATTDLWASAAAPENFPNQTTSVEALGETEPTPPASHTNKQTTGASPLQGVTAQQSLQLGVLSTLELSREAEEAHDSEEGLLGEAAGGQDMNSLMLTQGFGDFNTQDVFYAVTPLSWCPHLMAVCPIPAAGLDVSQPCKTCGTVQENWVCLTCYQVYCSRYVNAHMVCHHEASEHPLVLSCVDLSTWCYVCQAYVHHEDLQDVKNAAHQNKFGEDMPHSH
Kind of test: Inhibition of recombinant mouse HDAC6 expressed in HEK293T cells co-expressing mouse HDA2 using Ac-KGLGK(Ac)-MCA as substrate after 30 mins in presence of DTT by fluorescence assay.

Another test has as its system A549. Description: Growth inhibition of human A549 cells after 48 hrs by sulforhodamine B-based colorimetric assay. Type of test: functional. As to conditions: A549, 48 h.
In a further test the test system is OVCAR-4. Description: Growth inhibition of human OVCAR4 cells after 48 hrs by sulforhodamine B-based colorimetric assay. Type of test: functional. The conditions noted are these: OVCAR-4, 48 h.
For another test, the system named is HCT-116. Kind of test: Growth inhibition of human HCT116 cells after 48 hrs by sulforhodamine B-based colorimetric assay. The class given is functional, cell-based. As to conditions: HCT-116, 48 h.
A further test deals with Histone deacetylase 1 (Homo sapiens, UniProt Q13547). Description: Inhibition of recombinant human HDAC1 expressed in HEK293T cells using Ac-KGLGK(Ac)-MCA as substrate after 30 mins in presence of DTT by fluorescence assay.

The results in this text go back to ChEMBL document CHEMBL4219122, “Synthesis and biological evaluation of histone deacetylase and DNA topoisomerase II-Targeted inhibitors” (Bioorg Med Chem, 2018).

Chain of Histone deacetylase 1 (Q13547 whole entry): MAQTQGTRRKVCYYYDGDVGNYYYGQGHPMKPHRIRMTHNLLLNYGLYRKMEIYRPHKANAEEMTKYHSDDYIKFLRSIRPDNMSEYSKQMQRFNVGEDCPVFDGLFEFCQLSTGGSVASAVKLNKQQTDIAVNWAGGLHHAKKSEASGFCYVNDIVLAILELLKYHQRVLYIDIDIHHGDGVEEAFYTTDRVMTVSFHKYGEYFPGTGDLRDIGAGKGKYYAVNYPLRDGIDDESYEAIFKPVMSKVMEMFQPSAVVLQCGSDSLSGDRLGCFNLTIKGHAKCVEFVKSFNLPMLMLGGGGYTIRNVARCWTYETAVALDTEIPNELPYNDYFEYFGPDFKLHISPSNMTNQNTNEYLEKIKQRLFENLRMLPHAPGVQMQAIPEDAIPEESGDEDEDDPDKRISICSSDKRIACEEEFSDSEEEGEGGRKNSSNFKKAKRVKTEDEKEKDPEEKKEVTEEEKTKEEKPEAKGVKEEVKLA

As for `Cc1cn([C@@H]2C[C@H](C3(c4ccc(NC(=O)CCCCCCC(=O)NO)cc4)SCCCS3)[C@@H](CO[Si](C)(C)C(C)(C)C)O2)c(=O)[nH]c1=O`, the GI50 with ACHN is 9.33 µM; with NCI-H23 it was 7.94 µM; in the test with U-251, 5.13 µM; with OVCAR-5, 6.61 µM; in the test with DMS-273, 3.98 µM; in [1] it was 2.63 µM. Also, the GI50 in the test on MDA-MB-231 is 3.09 µM; in the test with SK-OV-3, 12.9 µM; with SF-539, 4.57 µM; in the test on RXF 631 it was 11.2 µM; in the test with A549 it was 8.51 µM; in the test on OVCAR-4, 3.98 µM. In addition, the GI50 with HCT-116 (read-out: GI50) and with HCT-116 (read-out: pGI50 (converted)) was 4.17 µM throughout. Besides, the Ratio IC50 in test [2] amounted to 20. Also, the IC50 turned out to be 0.044 µM in [3] and 1.1 µM on Histone deacetylase 1.

Consider `Cc1cn([C@H]2C[C@H](C3(c4ccc(NC(=O)CCCCCCC(=O)NO)cc4)SCCCS3)[C@@H](CO[Si](C)(C)C(C)(C)C)O2)c(=O)[nH]c1=O`, for which the GI50 with ACHN was 4.37 µM; in the test on NCI-H23 it was 4.68 µM; in the test with U-251, 3.98 µM; in the test with OVCAR-5, 4.9 µM; in the test with DMS-273, 3.89 µM; in [1], 2.63 µM. The GI50 in the test with MDA-MB-231 was 2.51 µM; in the test with SK-OV-3, 4.07 µM; in the test with SF-539, 3.39 µM; in the test with RXF 631 it was 3.63 µM; in the test on A549 it was 5.01 µM; in the test on OVCAR-4, 3.24 µM. In addition, the GI50 in the test with HCT-116 (read-out: GI50) and in the test with HCT-116 (read-out: pGI50 (converted)) was 3.39 µM each time. Further, the half-inhibitory concentration (IC50) worked out at 0.051 µM in [3] and 0.73 µM on Histone deacetylase 1.

As usually defined, the IC50 is the concentration that inhibits the measured activity by half.
